Measurements as given in US12043625B2, “Pyridine derivatives with c-linked cyclic substituents as cGAS inhibitors” (BOEHRINGER INGELHEIM INTERNATIONAL GMBH, priority 2021, dated 2024).

What was measured:
Human cGAS = Human cGAS (Homo sapiens (Human), UniProt Q8N884); test: Human cGAS enzyme assay (hcGAS IC50, in vitro), cGAMP formation by RapidFire MS; format: biochemical; conditions: 45 bp dsDNA, GTP/ATP;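 further: compounds preincubated 60 min, then GTP and ATP (30 µM each) added for 90 min at room temperature, cGAMP read relative to cyclic-di-GMP internal standard, no-enzyme/DNA wells as 0%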
[1] = system: IFN induction in virus-stimulated THP1 cells; test: Human cGAS cell assay, baculovirus-stimulated THP1-Dual cells, Lucia luciferase reporter (THP1(vir) IC50); format: cell-based; conditions: for IC50: Homo sapiens, THP-1; for Ratio THP(cGAMP) IC50/THP(vir) IC50: selectivity for cGAS inhibition;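 on all read-outs here: IRF-dependent luminescence, 8 concentrations up to 10 µM in 1% DMSO, 0% = unstimulated cells, 100% = DMSO plus virus, counter assay stimulated with cGAMP downstream of cGAS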
[2] = system: IFN induction in dsDNA-stimulated human whole blood; test: Human whole blood assay, dsDNA transfection, IFNα2a production (hWB IC50); format: cell-based;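 further: cGAS pathway activity, IFNα2a in plasma by MSD immunoassay after 22 h at 37 °C, 8 concentrations up to 10 µM in 0.1% DMSO, DMSO controls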
Protocol: For the detection of cellular cGAS activity human whole blood was stimulated by transfection with double stranded DNA. Pathway activity was monitored by measuring the IFNα2α production.
Typically, 8 concentrations were used with the highest concentration at 10 μM in the final assay volume followed by ˜1:5 dilution steps. DMSO concentration was set to 0.1% in the final assay volume. The 96-well assay plate contained 10 test compounds, and DMSO in control wells.
Whole blood was kept at room temperature for a maximum of 3 hours after collection until use in the assay.
160 μl of the whole blood samples was transferred to each well of the 96-well assay plates filled with compound/OptiMEM. All assay plates were prepared as duplicates with blood from different donors. Blood plates were kept at room temperature for 60 minutes and continuous shaking with 450 rpm, covered with the lid, but not sealed.
20 μl OptiMEM and 9.6:1 Fugene was added to all low control wells.
After covering assay plates with aera seals and the lid, blood plates were kept at room temperature for 30 minutes and continuous shaking with 450 rpm, followed by an overnight incubation of 22 h at 37° C. in the incubator, without shaking.
U-Plex MSD GOLD 96-well Small Spot Strepavidin SECTOR Plates (Meso Scale Diagnostics #L45SA-5) were coated with 25 μl diluted capture antibody. Coated plates were incubated for 60 min at room temperature under continuous shaking at 700 rpm. MSD IFNα-2a plates were washed three times with 150 μl wash buffer (1×HBSS, 0.05% Tween).
After blocking the plates with 100 μl block solution/well (1×HBSS with 0.2% Tween, 2% BSA) for 60 min at room temperature and continuous shaking at 700 rpm, plates were emptied as dry as possible by dumping just before continuing with the human plasma.
Whole Blood assay plates were centrifuged at 1600 rpm for 10 minutes. 25 μl of supernatant was transferred with a pipetting robot from each whole blood plate to the corresponding IFNα-2a plate.
Plates were sealed with microplate seals and kept at room temperature again under continuous shaking at 700 rpm for two hours.
Next MSD IFNα-2a plates were washed three times with 150 μl wash buffer (1×HBSS, 0.05% Tween), before adding 25 μl MSD SULFO-TAG IFNα-2a Antibody solution (1:100 diluted in Diluent 3 (Meso Scale Diagnostics #R50AP-2) to each well of the plates.
Afterwards plates were sealed with microplate seals and kept at room temperature again under continuous shaking at 700 rpm for two hours. Finally, MSD IFNα-2α plates were washed three times with 150 μl wash buffer (1×HBSS, 0.05% Tween). 150 μl 2× Read buffer was added to each well and plates were immediately measured with the MSD Sector S600 Reader using the vendor barcode.
For data evaluation and calculation, % control calculation of each well was based on the mean of high (DNA stimulated control) and mean of low (unstimulated control) controls by using the following formula: [counts(sample)−counts(low))/(counts(high)−counts(low))]*100
The IC50 values were calculated using the standard 4 parameter logistic regression formula. Calculation: [y=(a−d)/(1+(x/c)^b)+d], a=low value, d=high value; x=conc M; c=1C50 M; b=slope

[3] = system: IFN induction in cGAMP-stimulated THP1 cells; test: cGAMP stimulated counter cell assay, THP1-Dual cells, Lucia luciferase reporter (THP1(cGAMP) IC50); format: cell-based; conditions: Homo sapiens, THP-1, THP1-Dual cells stimulated with 10 μM cGAMP;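 further: IRF-driven Lucia luciferase luminescence after 18 h at 37° C, compound series topping at 10 µM with 1% DMSO, unstimulated wells as 0% and DMSO wells as 100%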
Description: 6.2 Method: Human cGAS Cell Assay and cGAMP Stimulated Counter Cell Assay (THP1(vir) IC50 and THP1(cGAMP) IC50)
THP1-Dual™ cells (InvivoGen #thpd-nfis) expressing IRF dependent Lucia luciferase reporter were used as basis for both assays.
For the counter assay, cells were stimulated by cGAMP (SigmaAldrich #SML1232) to activate the identical pathway independent and directly downstream of cGAS (measurement of THP1(cAMP) IC50). Pathway activity was monitored by measuring the Lucia luciferase activity induced by either DNA stimulated cGAS enzyme activity (measurement of THP1^(vir) IC50) or by cGAMP directly (measurement of THP1(cAMP) IC50, counter assay).
Compounds were delivered in 10 mM DMSO solution, serially diluted and transferred to the 384 well assay plate (Greiner #781201) using an Echo acoustic dispenser. Typically, 8 concentrations were used with the highest concentration at 10 μM in the final assay volume followed by ˜1:5 dilution steps. DMSO concentration was set to 1% in the final assay volume. The 384 well assay plate contained 21 test compounds (column 1-22), and DMSO in column 23 and 24.
30 μL of the cell/virus-mix were added to each well of the compound plate from column 1-23 via MultiDrop Combi dispenser (5000 cells/well). In column 24, 30 μl/5000 cells/well without virus were added as a low control.
The plates were then incubated for 18 h at 37° C. in a humidified incubator.
Following that, 15 μL of QuantiLuc detection reagent (InvivoGen #rep-qlcg5) were added to each well using a MultiDrop Combi. Measurement was done immediately after the addition using an EnVision reader (US-luminescence read-mode).
Data Evaluation and Calculation:
For data evaluation and calculation, the measurement of the low control was set as 0% control and the measurement of the high control was set as 100% control. The IC50 values were calculated using the standard 4 parameter logistic regression formula. Calculation: [y=(a−d)/(1+(x/c)^b)+d], a=low value, d=high value; x=conc M; c=1C50 M; b=slope

cGAS = conditions: as disclosed on page 45 of WO 2020/142729; read-out: biochemical (in vitro) IC50-value group; cited from earlier work
[4] = baculovirus-stimulated THP1-Dual cells, 18 h

Human cGAS, sequence (Q8N884 whole entry): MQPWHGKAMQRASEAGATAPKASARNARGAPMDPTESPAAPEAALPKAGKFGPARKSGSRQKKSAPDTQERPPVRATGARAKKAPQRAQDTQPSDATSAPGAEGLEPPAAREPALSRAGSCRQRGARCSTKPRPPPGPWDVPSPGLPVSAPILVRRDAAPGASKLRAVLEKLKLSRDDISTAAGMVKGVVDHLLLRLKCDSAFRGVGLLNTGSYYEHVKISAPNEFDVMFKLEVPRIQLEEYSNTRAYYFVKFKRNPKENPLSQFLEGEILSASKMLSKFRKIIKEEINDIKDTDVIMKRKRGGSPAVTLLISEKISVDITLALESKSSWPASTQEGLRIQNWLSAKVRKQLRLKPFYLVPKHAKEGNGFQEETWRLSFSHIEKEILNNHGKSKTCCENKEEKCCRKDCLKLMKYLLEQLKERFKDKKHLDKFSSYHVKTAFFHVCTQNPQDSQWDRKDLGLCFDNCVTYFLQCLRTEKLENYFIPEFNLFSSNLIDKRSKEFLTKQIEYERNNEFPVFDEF

CO[C@]1(c2cc(Cl)cnc2O[C@H]2C[C@@H](C(=O)O)N(c3nc(C(F)F)nc4c3oc3ccccc34)C2)CCS(=O)(=O)C[C@@H]1C [Example 2.06]
IC50 (Human cGAS): 8 nM | IC50 [1, 4]: 314 nM | Ratio THP(cGAMP) IC50/THP(vir) IC50 [1]: 46 | IC50 [2]: 287 nM | IC50 [3]: 14.6 µM

C[C@H]1COCC[C@]1(F)c1cc(-c2cnn(C(F)F)c2)cnc1O[C@H]1C[C@@H](C(=O)O)N(c2nc(C(F)F)nc3c2oc2ccccc23)C1 [Example 6.01, (2S,4S)-4-({5-[1-(Difluoromethyl)-1H-pyrazol-4-yl]-3-[(3S,4R)-4-fluoro-3-methyloxan-4-yl]pyridin-2-yl}oxy)-1-[4-(difluoromethyl)-8-oxa-3,5-diazatricyclo[7.4.0.0^2,7]trideca-1(9),2(7),3,5,10,12-hexaen-6-yl]pyrrolidine-2-carboxylic acid]
IC50 (Human cGAS): 5 nM | IC50 [1, 4]: 35 nM | Ratio THP(cGAMP) IC50/THP(vir) IC50 [1]: >289 | IC50 [2]: 82 nM | IC50 [3]: > 9.99 µM

CNc1cccc(-c2cnc(O[C@H]3C[C@@H](C(=O)O)N(c4nc(C(F)F)nc5c4oc4ccccc45)C3)c([C@@]3(F)CCOC[C@@H]3C)c2)c1 [Example 6.03]
IC50 (Human cGAS): 10 nM | IC50 [1, 4]: 35 nM | Ratio THP(cGAMP) IC50/THP(vir) IC50 [1]: 276 | IC50 [2]: 38 nM | IC50 [3]: 9.51 µM

C#Cc1cnc(O[C@H]2C[C@@H](C(=O)O)N(c3nc(C(F)F)nc4c3oc3ccccc34)C2)c([C@@]2(F)CCN(C(C)=O)C[C@@H]2C)c1 [Example 2.20]
IC50 (Human cGAS): 4 nM | IC50 [1, 4]: 17 nM | Ratio THP(cGAMP) IC50/THP(vir) IC50 [1]: 583 | IC50 [2]: 25 nM | IC50 [3]: 9.89 µM

C#Cc1cnc(O[C@H]2C[C@@H](C(=O)O)N(c3nc(C(F)(F)F)nc4c3oc3ccccc34)C2)c([C@@]2(F)CC(C)(C)S(=O)(=O)C[C@@H]2C)c1 [Example 1.08]
IC50 (Human cGAS): 4 nM | IC50 [1, 4]: 4 nM | Ratio THP(cGAMP) IC50/THP(vir) IC50 [1]: 3275 | IC50 [2]: 16 nM | IC50 [3]: 13.9 µM

C#Cc1cnc(O[C@H]2C[C@@H](C(=O)OC)N(c3nc(C(F)(F)F)nc4c3oc3ccccc34)C2)c([C@@]2(F)CCS(=O)(=O)C[C@@H]2C)c1 [Example P01]
IC50 (Human cGAS): 19100 nM | IC50 [1, 4]: 11 nM | IC50 [2]: 67 nM | IC50 [3]: > 16.6 µM

O=C(O)[C@@H]1C[C@H](Oc2ncc(Br)cc2C2(F)CCS(=O)(=O)CC2)CN1c1nc(C(F)F)nc2c1oc1ccccc12 [Example 2.04]
IC50 (Human cGAS): 5 nM | IC50 [1, 4]: 638 nM | Ratio THP(cGAMP) IC50/THP(vir) IC50 [1]: >26 | IC50 [2]: 115 nM | IC50 [3]: > 16.6 µM

Cc1nc(N2C[C@@H](Cc3nn[nH]n3)C[C@H]2C(=O)O)c2oc3ccccc3c2n1 [Example 25, reference compound]
IC50 [1]: 17000 nM | IC50 [1, 4]: > 17000 nM | IC50 (cGAS): < 100 nM | IC50 [2]: > 9990 nM | IC50 [3]: > 17 µM

C[C@H]1CS(=O)(=O)C(C)(C)C[C@]1(F)c1cc(Cl)cnc1O[C@H]1C[C@@H](C(=O)O)N(c2nc(C(F)(F)F)nc3c2oc2ccccc23)C1 [Example 1.06]
IC50 (Human cGAS): 5 nM | IC50 [1, 4]: 12 nM | Ratio THP(cGAMP) IC50/THP(vir) IC50 [1]: 479 | IC50 [2]: 24 nM | IC50 [3]: 5.82 µM

O=C(O)[C@@H]1C[C@H](Oc2ncc(Cl)cc2[C@]2(F)CCS(=O)(=O)C3(COC3)C2)CN1c1nc(C(F)F)nc2c1oc1ccccc12 [Example 1.20]
IC50 (Human cGAS): 3 nM | IC50 [1, 4]: 139 nM | Ratio THP(cGAMP) IC50/THP(vir) IC50 [1]: 111 | IC50 [2]: 55 nM | IC50 [3]: 15.5 µM

CC(=O)N1CC[C@](F)(c2cc(Cl)cnc2O[C@H]2C[C@@H](C(=O)O)N(c3nc(C(F)F)nc4c3oc3ccccc34)C2)[C@@H](C)C1 [Example 1.22]
IC50 (Human cGAS): 4 nM | IC50 [1, 4]: 85 nM | Ratio THP(cGAMP) IC50/THP(vir) IC50 [1]: 189 | IC50 [2]: 114 nM | IC50 [3]: 16.1 µM

C[C@H]1CS(=O)(=O)C(C)(C)C[C@@]1(F)c1cc(Cl)cnc1O[C@H]1C[C@@H](C(=O)O)N(c2nc(C(F)(F)F)nc3c2oc2ccccc23)C1 [Example 1.07]
IC50 (Human cGAS): 69 nM | IC50 [1, 4]: 216 nM | Ratio THP(cGAMP) IC50/THP(vir) IC50 [1]: 17 | IC50 [2]: 213 nM | IC50 [3]: 3.68 µM

C[C@H]1CN(C2COC2)CC[C@]1(F)c1cc(Cl)cnc1O[C@H]1C[C@@H](C(=O)O)N(c2nc(C(F)F)nc3c2oc2ccccc23)C1 [Example 1.23]
IC50 (Human cGAS): 15 nM | IC50 [1, 4]: 185 nM | Ratio THP(cGAMP) IC50/THP(vir) IC50 [1]: 45 | IC50 [2]: 165 nM | IC50 [3]: 8.4 µM

C#Cc1cnc(O[C@H]2C[C@@H](C(=O)O)N(c3nc(C(F)(F)F)nc4c3oc3ccccc34)C2)c([C@@]2(F)CCN(C(C)=O)C[C@@H]2C)c1 [Example 2.19]
IC50 (Human cGAS): 5 nM | IC50 [1, 4]: 23 nM | Ratio THP(cGAMP) IC50/THP(vir) IC50 [1]: 435 | IC50 [2]: 57 nM | IC50 [3]: 9.96 µM

C#Cc1cnc(O[C@H]2C[C@@H](C(=O)O)N(c3nc(C(F)(F)F)nc4c3oc3ccccc34)C2)c([C@]2(F)CCOC[C@@H]2C)c1 [Example 1.04]
IC50 (Human cGAS): 4 nM | IC50 [1, 4]: 378 nM | Ratio THP(cGAMP) IC50/THP(vir) IC50 [1]: 66 | IC50 [2]: 648 nM | IC50 [3]: 24.9 µM

C#Cc1cnc(O[C@H]2C[C@@H](C(=O)O)N(c3nc(C(F)(F)F)nc4c3oc3ccccc34)C2)c([C@@]2(F)CCS(=O)(=O)C[C@@H]2C)c1 [Example 2.12]
IC50 (Human cGAS): 3 nM | IC50 [1, 4]: 8 nM | Ratio THP(cGAMP) IC50/THP(vir) IC50 [1]: 2619 | IC50 [2]: 8 nM | IC50 [3]: 21.8 µM

CC#Cc1cnc(O[C@H]2C[C@@H](C(=O)O)N(c3nc(C(F)(F)F)nc4c3oc3ccccc34)C2)c([C@@]2(F)CCN(C3COC3)C[C@@H]2C)c1 [Example 2.17]
IC50 (Human cGAS): 96 nM | IC50 [1, 4]: 382 nM | Ratio THP(cGAMP) IC50/THP(vir) IC50 [1]: 10 | IC50 [2]: 287 nM | IC50 [3]: 3.92 µM

COc1cncc(-c2cnc(O[C@H]3C[C@@H](C(=O)O)N(c4nc(C(F)F)nc5c4oc4ccccc45)C3)c([C@@]3(F)CCOC[C@@H]3C)c2)c1 [Example 6.02]
IC50 (Human cGAS): 6 nM | IC50 [1, 4]: 5 nM | Ratio THP(cGAMP) IC50/THP(vir) IC50 [1]: >3212 | IC50 [2]: 45 nM | IC50 [3]: > 16.6 µM
